Data taken from US12637438B2, “Protoporphyrinogen oxidase inhibitors” (Enko Chem, Inc., priority 2021, dated 2026).

System: PPO dG210 mutant Tall Waterhemp (Amaranthus tuberculatus)
Type: in vivo
Conditions: relative to Flumioxazin, Sulfentrazone, and Pyroxasulfone

C#CCN1C(=O)C(F)(F)Oc2cc(F)c(-c3c(F)c(F)c(F)c(F)c3F)cc21 [Compound 2, 2,2,7-trifluoro-6-(perfluorophenyl)-4-(prop-2-yn-1-yl)-2H-benzo[b][1,4]oxazin-3(4H)-one]
resistant weed control, comparison in words: more effective at resistant weed control than the other commercially available herbicides
